Each molecule was assayed against PDE1B (Homo sapiens, UniProt Q01064) (assay: In vitro HTRF PDE1 inhibition assay (PDE1B)). Settings: Table 22.
Assay type: biochemical
Source text: An exemplary procedure for the in vitro Homogenous Time Resolved Fluorescence assay, which can be used to determine the inhibitory action of compounds of the invention toward PDE1 or its isoforms, follows. The HTRF PDE1 assay utilized the HTRF (Homogenous Time Resolved Fluorescence) technology, which is based on the competition between unlabeled cyclic nucleotide and cyclic nucleotide labeled with XL665 for the binding to cyclic nucleotide-specific antibody labeled with cryptate. The HTRF signal is thus inversely proportional to the concentration of cyclic nucleotide being measured. Since phosphodiesterases break down cyclic nucleotides the HTRF signal was used to determine PDE activity. The Cisbio cGMP HTRF assay kit (Cat no: 62GM2PEC) was utilized. Cyclic GMP was diluted to 200 nM in HTRF assay buffer (1 mM CaCl2, 10 mM MgCl2, 10 mM Tris-HCl, 0.1% BSA, pH 7.4). 10 μl of compound or DMSO was diluted in 200 nM cyclic GMP solution and added to wells of a 96 well white plate to give 100 nM cyclic GMP in 1% DMSO final concentration. PDE (1A3, 1B or IC) was diluted to 2× working concentration in HTRF assay buffer with 2 μg/ml calmodulin, and 10 μl was added to initiate the reaction. The plate was then incubated for 45 minutes at 37° C. d2-Labelled cyclic GMP and anti-cGMP cryptate were diluted in 50 mM phosphate buffer, 0.8 M KF, 1% Triton X100, 0.2% BSA, pH 7.0. Following incubation 10 μl d2-cGMP, then 10 μl anti cGMP cryptate were added to each well and the plate was incubated for 45 minutes at room temperature. The plate was then read on Perkin Elmer Victor at 2 different FRET readings ex/emm 340 nm/665 nm and 340 nm/615 nm. Compounds having an IC50 of <1 μM, are denoted as +++. Compounds having an IC50 of 1−10 μM, are denoted as ++. Compounds having an IC50 of 10-100 μM, are denoted as +.

Row | Structure (SMILES) | IC50 [µM]
1 | CCCN1c2nn3c(C4CCOCC4)ncc3c(=O)n2C[C@@H]1c1ccc(CC)nc1 [Example 90] | < 1
2 | CCCN1c2nn3c(C4CCOCC4)ncc3c(=O)n2C[C@H]1c1ccc(CC)nc1 [Example 91] | 1 to 10
3 | CCc1ccc([C@H]2Cn3c(nn4c(C5CCOCC5)ncc4c3=O)N2CC(C)C)cn1 [Example 92] | 1 to 10
4 | CCc1ccc([C@@H]2Cn3c(nn4c(C5CCOCC5)ncc4c3=O)N2CC(C)C)cn1 [Example 93] | 10 to 100
5 | CCc1ccc(C2Cn3c(nn4c(C(C)C)ncc4c3=O)N2CC)cn1 (stereo not shown) [Example 95] | 1 to 10
6 | CCCN1c2nn3c(C(C)C)ncc3c(=O)n2C[C@@H]1c1ccc(CC)nc1 [Example 96] | 1 to 10
7 | CCCN1c2nn3c(C(C)C)ncc3c(=O)n2CC1c1ccc(CC)nc1 (stereo not shown) [Example 97] | 1 to 10
8 | CCc1ccc(C2Cn3c(nn4c(C(C)C)ncc4c3=O)N2CC(C)C)cn1 (stereo not shown) [Example 98] | 1 to 10
9 | CCc1ccc(C2Cn3c(nn4c(C(C)C)ncc4c3=O)N2CC(C)C)cn1 (stereo not shown) [Example 99] | 1 to 10
10 | CC(C)c1ncc2c(=O)n3c(nn12)N(CCCCO)CC3 [Example 100, 1-(4-Hydroxybutyl)-8-isopropyl-2,3-dihydro-1H,5H-diimidazo[2,1-c:5′,1′-f][1,2,4]triazin-5-one] | < 1
11 | CC(C)c1ncc2c(=O)n3c(nn12)N(CCCCCO)CCC3 [Example 101, 1-(5-Hydroxypentyl)-9-isopropyl-1,2,3,4-tetrahydro-6H-imidazo[5,1-f]pyrimido[2,1-c][1,2,4]triazin-6-one] | < 1
12 | CC(C)c1ncc2c(=O)n3c(nn12)N(CCCCCO)CC3 [Example 102] | < 1
13 | CC(C)c1ncc2c(=O)n3c(nn12)N(CCCCCCO)CC3 [Example 103] | < 1
14 | CC(C)c1ncc2c(=O)n3c(nn12)N(CCOCCO)CC3 [Example 104] | < 1
15 | CC(C)c1ncc2c(=O)n3c(nn12)N(CCCCO)CCC3 [Example 105] | < 1
16 | CC(C)c1ncc2c(=O)n3c(nn12)N(CCOCCO)CCC3 [Example 107] | 1 to 10
17 | O=c1c2cnc(C3CCOCC3)n2nc2n1CCN2CCCCCO [Example 108] | < 1
18 | O=c1c2cnc(C3CCOCC3)n2nc2n1CCCN2CCCCCO [Example 109] | < 1
19 | CC(C)c1ncc2c(=O)n3c(nn12)N(CCCC(O)CO)CC3 (stereo not shown) [Example 110, 1-(4,5-Dihydroxypentyl)-8-isopropyl-2,3-dihydro-1H,5H-diimidazo[2,1-c:5′,1′-f][1,2,4]triazin-5-one] | < 1
20 | CC(C)c1ncc2c(=O)n3c(nn12)N(CCCC(O)CO)CCC3 (stereo not shown) [Example 111, 1-(4,5-Dihydroxypentyl)-9-isopropyl-1,2,3,4-tetrahydro-6H-imidazo[51-f]pyrimido[2,1-c][1,2,4]triazin-6-one] | < 1
21 | CC(C)c1ncc2c(=O)n3c(nn12)N(CC1CCN(C)CC1)CCC3 [Example 112, 9-Isopropyl-1-[(1-methyl-4-piperidinyl)methyl]-1,2,3,4-tetrahydro-6H-imidazo[5,1-f]pyrimido[2,1-c][1,2,4]triazin-6-one] | 1 to 10
22 | CC(C)c1ncc2c(=O)n3c(nn12)N(CCC1CCNCC1)CCC3 [Example 113, 9-Isopropyl-1-[2-(4-piperidinyl)ethyl]-1,2,3,4-tetrahydro-6H-imidazo[5,1-f]pyrimido[2,1-c][1,2,4]triazin-6-one] | 1 to 10

Row | Structure (SMILES) | IC50 [µM]
23 | CC(C)c1ncc2c(=O)n3c(nn12)N(CCC1CCN(C)CC1)CCC3 [Example 114, 9-Isopropyl-1-[2-(1-methyl-4-piperidinyl)ethyl]-1,2,3,4-tetrahydro-6H-imidazo[5,1-f]pyrimido[2,1-c][1,2,4]triazin-6-one] | < 1
24 | CC(C)c1ncc2c(=O)n3c(nn12)N(CCc1cccc(C#N)c1)CCC3 [Example 115, 3-(2-(9-Isopropyl-6-oxo-2,3,4,6-tetrahydro-1H-imidazo[1,5-f]pyrimido[2,1-c][1,2,4]triazin-1-yl)ethyl)benzonitrile] | < 1
25 | N#Cc1ccc(CCN2CCCn3c2nn2c(C4CCOCC4)ncc2c3=O)cc1 [Example 116, 4-{2-[6-Oxo-9-(tetrahydro-2H-pyran-4-yl)-3,4-dihydro-6H-imidazo[5,1-f]pyrimido[2,1-c][1,2,4]triazin-1(2H)-yl]ethyl}benzonitrile] | < 1
26 | N#Cc1cccc(CCN2CCCn3c2nn2c(C4CCOCC4)ncc2c3=O)c1 [Example 117] | 10 to 100
27 | N#Cc1cccc(CCCN2CCCn3c2nn2c(C4CCOCC4)ncc2c3=O)c1 [Example 118] | < 1
28 | N#Cc1ccc(CCCN2CCCn3c2nn2c(C4CCOCC4)ncc2c3=O)cc1 [Example 119] | < 1
29 | CC1CN(CCCc2ccccn2)c2nn3c(C(C)C)ncc3c(=O)n2C1 (stereo not shown) [Example 121] | < 1
30 | CC(C)c1ncc2c(=O)n3c(nn12)N(CCCc1cccc(F)c1)CCC3 [Example 122] | < 1
31 | CC(C)c1ncc2c(=O)n3c(nn12)N(C(=O)CC1CCOCC1)CCC3 [Example 123, 9-Isopropyl-1-(tetrahydro-2H-pyran-4-ylacetyl)-1,2,3,4-tetrahydro-6H-imidazo[5,1-f]pyrimido[2,1-c][1,2,4]triazin-6-one] | 1 to 10
32 | CC(C)c1ncc2c(=O)n3c(nn12)N(C(=O)CCC1CCOCC1)CCC3 [Example 124, 9-Isopropyl-1-(3-(tetrahydro-2H-pyran-4-yl)propanoyl)-3,4-dihydro-1H-imidazo[1,5-f]pyrimido[2,1-c][1,2,4]triazin-6(2H)-one] | 10 to 100
33 | CC(C)c1ncc2c(=O)n3c(nn12)N(C(=O)CCN1CCOCC1)CCC3 [Example 125, 9-Isopropyl-1-(3-morpholinopropanoyl)-3,4-dihydro-1H-imidazo[1,5-f]pyrimido[2,1-c][1,2,4]triazin-6(2H)-one] | 1 to 10
34 | CC(C)c1ncc2c(=O)n3c(nn12)OC(c1ccccc1)CC3 (stereo not shown) [Example 126, 9-Isopropyl-2-phenyl-3,4-dihydroimidazo[5,1-f][1,3]oxazino[2,3-c][1,2,4]triazin-6(2H)-one] | < 1
35 | CC(C)c1ncc2c(=O)n3c(nn12)OC(c1ccc(Cl)cc1)CC3 (stereo not shown) [Example 127] | < 1
36 | COc1cccc(C2CCn3c(nn4c(C(C)C)ncc4c3=O)O2)c1 (stereo not shown) [Example 128] | 1 to 10
37 | COc1ccc(C2CCn3c(nn4c(C(C)C)ncc4c3=O)O2)cc1 (stereo not shown) [Example 129] | < 1
38 | CC(C)c1ncc2c(=O)n3c(nn12)OC(Cc1ccccc1)CC3 (stereo not shown) [Example 130] | < 1
39 | COc1ccc(CC2CCn3c(nn4c(C(C)C)ncc4c3=O)O2)cc1 (stereo not shown) [Example 131] | < 1
40 | CC(C)c1ncc2c(=O)n3c(nn12)OC(Cc1ccc(Cl)cc1)CC3 (stereo not shown) [Example 132] | < 1
41 | O=c1c2cnc(C3CCCC3)n2nc2n1CCC(c1ccccc1)C2 (stereo not shown) [Example 134, 3-Cyclopentyl-7-phenyl-8,9-dihydro-6H-imidazo[5,1-f]pyrido[2,1-c][1,2,4]triazin-11(7H)-one] | 1 to 10
42 | COc1cccc(C2CCn3c(nn4c(C5CCCC5)ncc4c3=O)C2)c1 (stereo not shown) [Example 135] | 1 to 10
43 | COc1ccc(C2CCn3c(nn4c(C5CCCC5)ncc4c3=O)C2)cc1 (stereo not shown) [Example 136] | 1 to 10
44 | O=c1c2cnc(C3CCOCC3)n2nc2n1CC(c1ccc(Cl)cc1)C2 (stereo not shown) [Example 138, 7-(4-Chlorophenyl)-3-(tetrahydro-2H-pyran-4-yl)-7,8-dihydro-6H,10H-imidazo[5,1-f]pyrrolo[2,1-c][1,2,4]triazin-10-one] | 1 to 10

Same assay, conditions: Table 25

Row | Structure (SMILES) | IC50 [µM]
45 | COCCN1CCn2c1nn1c(C(C)C)ncc1c2=O [Example 139] | < 1
46 | CC(C)c1ncc2c(=O)n3c(nn12)N(CCc1cccnc1)CC3 [Example 140] | < 1
47 | CC(C)c1ncc2c(=O)n3c(nn12)N(Cc1ccc(Cl)cn1)CC3 [Example 141] | < 1
48 | O=c1c2cnc(C3CCC3)n2nc2n1CCN2CCCc1ccccn1 [Example 142] | < 1
49 | O=c1c2cnc(C3CCC3)n2nc2n1CCN2CC1CCOCC1 [Example 143] | < 1
50 | O=c1c2cnc(C3CCC3)n2nc2n1CCN2Cc1ccc(Cl)cn1 [Example 144] | < 1
51 | COC(C)c1ncc2c(=O)n3c(nn12)N(CCC(C)(C)C)CC3 (stereo not shown) [Example 145] | < 1
52 | O=c1c2cnc(C3CCOCC3)n2nc2n1CCN2CCOC(F)(F)F [Example 146] | < 1
53 | O=c1c2cnc(C3CCOCC3)n2nc2n1CCN2CCc1cccc(F)c1 [Example 147] | < 1
54 | O=c1c2cnc(C3CCOCC3)n2nc2n1CCN2CCC1CC1 [Example 149] | < 1
55 | COc1ccccc1CN1CCn2c1nn1c(C3CCOCC3)ncc1c2=O [Example 150] | < 1
56 | O=c1c2cnc(C3CCOCC3)n2nc2n1CCN2CC1CCC1 [Example 151] | < 1
57 | O=c1c2cnc(C3CCOCC3)n2nc2n1CCN2CC1CCCC1 [Example 152] | < 1
58 | COc1ccc(CN2CCn3c2nn2c(C4CCOCC4)ncc2c3=O)cc1 [Example 157] | < 1
